Experimental data taken from a melting point compilation (Tetko et al.; mined from patent text by program, amines drawn as free bases though some values may be those of a salt).

Compound | melting point [°C]
COC(=O)c1ccc(Cn2c(=O)c3cc(C(=O)NCc4cccc(OC)c4)sc3n(C)c2=O)cc1C | 175 to 177
CSc1nnc(N(C(=O)CCl)c2c(C)cccc2C)n1C | 145 to 147
Cc1ccc(Cc2cnc(NCCCCc3ncc(Br)cc3C)[nH]c2=O)cn1 | 151 to 152
Cn1ncc2c1-c1c(Oc3ccc(N)cc3)sc(C(N)=O)c1CC2 | 214 to 216
CCN(C)C(=O)Nc1ccc2c(c1Cl)C(c1ccccc1F)=NCC(=O)N2C | 184 to 186
CSC(=O)C(=O)c1cccc(NC=O)n1 | 163 to 165
CN1CCC(Oc2cc3c(cc2F)c(=O)c(C(=O)O)cn3C2CC2)CC1 | 265 to 269
Cc1ccc(C(=O)C2=C(O)C(=O)N(c3ccc(C)nn3)C2c2ccc(C(F)(F)F)cc2)cc1 (stereo not given) | 278
Oc1c(C(=S)NCc2ccc(Cl)cc2)cnc2ccc(I)cc12 | 275 to 276
COC(=O)CCc1cc(C(C)(C)C)c(OP(Cl)c2ccccc2)c(C(C)(C)C)c1 (stereo not given) | 86 to 88
COc1cccc2c1C(=O)c1c(O)cc(CO)cc1C2=O | 215 to 216
CC(C)Sc1ccc(O)cc1O | 67
CCc1nc2c(cnn2CC)c(NC2CCOCC2)c1CNC(=O)c1cc(C)cc(C(=O)NCc2ccc(OC)c(-c3cccc(C=O)c3)c2)c1 | 117 to 119
CS(=O)(=O)Oc1ccc(C(c2ccc(OS(C)(=O)=O)c([N+](=O)[O-])c2)(C(F)(F)F)C(F)(F)F)cc1[N+](=O)[O-] | 119 to 121
CN1CC(CCCl)Oc2ccc(Cl)cc2C1=S (stereo not given) | 102 to 104
COc1ccc(O)c(CNc2ccc(NC(=O)CC(C)(C)C)cc2)c1 | 126 to 129
COc1cc(C(=O)CC(=O)c2ccc(O)cc2O)cc(OC)c1OC | 284 to 286
O=C(O)CCCOc1cccc(CCCCCCOc2ccc3c(c2C/C=C/c2ccccc2)CCCC3=O)c1CCC(=O)O | 102 to 104
CC(=O)OCC1(c2ccccc2)CCC(=O)CC1 | 74 to 79
CC(Cl)(Cl)C(NC(=O)c1cccc(Cl)c1)NC(=NC#N)Nc1ccc(Cl)nc1 (stereo not given) | 138 to 140

Compound | melting point [°C]
NCC(CC(=O)O)c1ccc(Cl)c(Cl)c1 (stereo not given) | 202 to 204
CN1C(=O)C(NC(=O)Nc2ccc(Cl)c(Cl)c2)N=C(c2ccccc2)c2ccccc21 (stereo not given) | 274 to 276
COC(=O)CNc1ccc(F)c(F)c1 | 71 to 73
COc1ccccc1C1(O)C(O)CC(c2ccccc2)(c2ccccc2)C2CN(C(=O)Cc3c[nH]c4ccc(O)cc34)CC21 (mixture of isomers) | 230 to 235
COc1cc(C2=NNC(=O)CC2)ccc1OCC1CO1 (stereo not given) | 134 to 136
CCCCCCCCCCCCCCOc1cc(OC)cc(N)c1OCOC | 66 to 67
CSc1nc2cc(Cl)c(S(N)(=O)=O)cc2[nH]1 | 253 to 254
O=S(=O)(CCCl)c1ccc(O)cc1 | 72.5 to 73.5
Cc1oc(-c2ccc(C(F)(F)F)cc2)nc1CCOc1c(Cl)cc(CN(O)C(N)=O)cc1Cl | 137 to 139
CCOC(=O)c1cnoc1-c1cccc(OC)c1 | 85 to 87
N#Cc1cc(N)ccc1N1CCCCC1 | 148 to 149
Cc1cc(OC(=O)c2ccc(Cl)cc2)n(C)n1 | 100 to 101
COc1cccc2c(=O)c3c(O)cc(OCC4CS4)cc3oc12 (stereo not given) | 187
COc1ccccc1-c1ccc(C(=O)N2Cc3ccc(C(=O)NCc4cccn4C)n3Cc3ccccc32)cc1 | 148 to 150
CCCCCCCCCCCCCCCC(=O)c1c(Br)cc(OC)c(OC)c1C(=O)NC[C@@H]1CCCN1CC | 46 to 48
CCOC(=O)C1C(=O)CC(C)(O)C(C(=O)OCC)C1c1cc(Br)c2oc(C)c(C)c2c1 (stereo not given) | 194 to 195
CC(F)(F)c1cccc(C[C@@H](NC(=O)c2cccc3c2C=CCCC3)[C@@H](O)c2ccc(F)cc2)c1 (racemic) | 170 to 171
CN(C(=S)Nc1nc(OCC(F)(F)F)cc(OCC(F)(F)F)n1)c1ccc(C(F)(F)F)cc1 | 109 to 111
CCCCNc1c(N)c(N)nc(C)c1C(=O)OCC | 82 to 83
COC(=O)c1nc(CN2CCOCC2)n(-c2ccc(Cl)cc2C(=O)c2ccccc2)n1 | 165 to 170

Compound | melting point [°C]
O=S(=O)(c1ccc(Cl)cc1)N1CCCC1c1cccc(F)c1 (racemic) | 126
CCOC(=O)c1c(C(C)C)nc2c(c1-c1ccc(F)cc1)CCCC2(C)C | 124 to 126
CC1CC2CCC=C3C=C(Cl)NCC1=C32 (stereo not given) | 279 to 281
O=C(Nc1cc(S(=O)(=O)NCCO)sc1Cl)c1cnn2c(C(F)(F)F)cc(-c3ccc(C(F)(F)F)cc3)nc12 | 191
CCOC(=O)CCC(C#N)(c1ccc(C(F)(F)F)cc1)N1CCOCC1 (stereo not given) | 96 to 97
CCCc1nc(C(C)(C)O)c(C(=O)OC(C)OC(=O)OC(C)C)n1Cc1ccc(-c2ccccc2C(=O)O)cc1 (stereo not given) | 94 to 96
CCCCCCCCCCCCCC/C=C\CNC(=O)OC(C)(C)C | 42 to 46
CC(C)(C)c1cc(=S)cc(C(C)(C)C)o1 | 108
CCOCCCNC(=O)Nc1ccccc1CCc1cc(C(C)(C)C)c(O)c(C(C)(C)C)c1 | 136 to 137
CCOc1ccc(O)c(CC(=O)OC)c1 | 83 to 84
N=C1SCCN1c1ccc([N+](=O)[O-])cc1 | 166
Cc1cc(SC2=C(O)CC(CCc3csc(CO)c3)(C(C)C)OC2=O)c(C(C)(C)C)cc1CO (stereo not given) | 76 to 80
CCCCc1ncc(C=O)n1Cc1ccc(C(=O)OC)cc1 | 62 to 64
CCCCc1ccc(-c2[nH]nc3c2C(=O)c2c(NC(C)=O)cccc2-3)cc1 | 259
Cn1cc(C2=C(c3c4n(c5ccccc35)CC3(CCN(C(=O)OC(C)(C)C)C3)C4)C(=O)NC2=O)c2ccccc21 (stereo not given) | 232 to 235
COc1cc2c(cc1OC)CCN(C(=O)N(C)O)CC2 | 95 to 96
CC(=O)OC1CSC(Oc2ccc(-c3cccnc3)cc2F)C(OC(C)=O)C1OC(C)=O (stereo not given) | 122
Cc1ccc(-c2cc(C(O)/C=C/c3ccc(C(=O)O)cc3)cc3c2C(C)(C)CCC3(C)C)cc1 (stereo not given) | 179
CC(C)(C)c1cccc(S(=O)(=O)n2c(Cc3ccc(C(=O)NS(=O)(=O)c4ccccc4)cc3)cc3cc(C(F)(F)F)ccc32)c1 | 99
CN1CCN(C(=O)CCOC2c3ccccc3C(=O)N2c2ccc3ccc(Cl)nc3n2)CC1 (stereo not given) | 150

The remaining lines, values ahead:

melting point [°C] | Compound
182 | c1ccc(COc2cc(-c3ccccn3)nc(-c3cccc(-c4ccccc4)n3)c2)cc1
246 to 249 | O=C1COc2ccc(C3=Cc4ccccc4OC3c3ccccc3)cc2N1 (stereo not given)
59 to 60 | COC(=O)c1ccc(CCc2nc(-c3ccccc3)oc2C)cc1
81.5 to 82 | CCOC(=O)c1cccc(-c2ccccc2C#N)c1
85 to 86 | COc1ccccc1CN1CCc2cc(OCc3ccccc3)c(OC)cc2C1
131 | c1ccc(-c2nn[nH]c2-c2ccccc2)cc1
251 to 254 | CC(C)Cn1c(=O)n(C)c(=O)c2c(-c3cccc(-c4nnn[nH]4)c3)n(Cc3cccc4ccccc34)nc21
243 to 245 | CCCc1nc(C)c(C=O)n1Cc1ccc(-c2ccccc2C(=O)O)cc1
149 to 152 | c1cc(CNc2nccc3ccccc23)cc(Nc2nnc3c4c(cccc24)-c2ccccc2-3)c1
182 to 186 | O=C(O)CCn1cc(Br)c2c3c(c(-c4ccccc4Cl)cc21)C(=O)NC3=O
260 | O=c1[nH]c2cc(Cl)ccc2c(O)c1-c1cccc(S(=O)(=O)c2ccccc2)c1
203 to 204 | CC(C)(Cc1c2c(nn1CCO)c(N)nc1ccccc12)NS(C)(=O)=O
105 to 107 | CCc1cc(C[C@H](NC(=O)c2c(Cl)cccc2Cl)C(=O)O)ccc1-c1ccccc1OC
254 to 257 | CC(C)(C)OC(=O)NCCCn1c(-c2ccc([N+](=O)[O-])cc2)csc1=Nc1ccccc1
216 to 219 | O=C(NNS(=O)(=O)c1ccccc1)c1ccc(-c2ccccc2)cc1
232 to 234 | CC(C)n1nc(-c2sc(C(N)=O)nc2-c2cccc(Cl)c2)ccc1=O
206 to 208 | CCC1c2cccn2-c2ccc(Br)cc2N1S(=O)(=O)c1ccc(O)cc1 (stereo not given)
161 to 163 | CN(C)c1cccc2c(S(=O)(=O)Nc3ncc(Cl)cc3Cl)cccc12

melting point [°C] | Compound
116 to 117 | COC1=C(OC)C(=O)c2ccccc2C1=O
65 to 70 | CCOC(=O)Cc1csc(-c2cccc(Br)c2)n1
116 to 117 | COC(=O)c1ccccc1NC(=O)Cc1ccccc1OC
109 to 111 | c1ccc2c(c1)cc(Cn1ccnc1)c1ccsc12
177 to 178 | N#CC1c2cccc(Br)c2C=CN1C(=O)c1ccccc1 (stereo not given)
228 to 232 | CCOC(=O)C1=C(c2ccc(-n3c(C)nc4cnccc43)cc2)NC(OC)=NC1c1ccccc1Cl (stereo not given)
118 to 120 | COc1ccc2[nH]c(C(=O)c3ccccc3)c(NC(C)=O)c2c1OC
146 to 155 | Nc1nc2ccccc2c2c1ncn2CCCCCCNC(=O)c1ccccc1
117 to 118 | COc1ccc(-c2nc(-c3ccccc3)sc2-c2ccc(OC)cc2)cc1
105 to 106 | COc1cc(OCc2ccc3ccccc3c2)cc(C(=O)c2nccs2)c1
146 to 147 | NC(=O)N(O)CCNC(=O)c1cccc(Oc2ccc(Cl)cc2)c1
220 | Nc1ccc2[nH]c(-c3ccccc3)cc2c1
123 to 124 | COc1ccc(C2Sc3c(ccc4ccccc34)N(CCCN(C)C)C(=O)C2O)cc1 (stereo not given)
92 to 94 | COc1ccc(-c2nc(Cl)sc2-c2ccc(OC)cc2)cc1
225 to 227 | CCOC(=O)c1[nH]c2cc(Cl)cc(Cl)c2c1NCC(=O)c1ccccc1Cc1ccccc1
118 to 120 | CCOC(=O)c1nc(NCC(c2ccccc2)c2ccccc2)c2ncn([C@@H]3O[C@H](CO)[C@@H](O)[C@H]3O)c2n1
83 to 84 | Oc1ccc(Nn2cccc2)c2ccccc12
